From patent US20160002247A1, “8-SUBSTITUTED IMIDAZOPYRIMIDINONE DERIVATIVE HAVING AUTOTAXIN INHIBITORY ACTIVITY” (THE UNIVERSITY OF TOKYO, priority 2013, published 2016)

Molecular target: T1, Human autotaxin enzyme (Homo sapiens, UniProt Q13822)
T1 construct: purchased R&D System
Experiment: Evaluation of autotaxin inhibitor, Method C (Test Example 3): 18:0 Lyso PC, choline assay, Resorufin fluorescence
Type: biochemical
Settings: Assay Method C (Test Example 3), human autotaxin, 18:0 Lyso PC substrate; read-out: Inhibitory Activity (autotaxin enzyme inhibitory activity, IC50 class)
Procedure: (Method C) Evaluation of Autotaxin Inhibitor
Solution B containing 100 mM Tris-HCl buffer (pH7.5), 150 mM NaCl, 5 mM MgCl2 and 0.05% Triton X-100 was prepared. Human autotaxin enzyme (purchased from R&D System) was diluted with Solution B, and 2.5 μL of which was added to a solution of test compound in DMSO. Furthermore, 2.5 μl of 200 μM 18:0 Lyso PC (purchased from Avanti Polar Lipids) in Solution B was added and allowed to react at room temperature for 2 hours. After completion of the reaction, 15 μL of the coline assay reagent (100 mM Tris-HCl buffer (pH7.5), 5 mM MgCl2, 77 μg/mL choline oxidase, 10 μg/mL peroxidase, 25 μM 10-acetyl-3,7-dihydroxyphenoxazine and excess autotaxin inhibitor) was added and allowed to react at room temperature for 20 minutes. The fluorescent dye Resorufin, which was produced by the reaction, was detected. The fluorescence was detected using ViewLux (PerkinElmer, Inc.) with an excitation wavelength of 531 nm and a fluorescence wavelength of 598 nm.
The percent inhibition of the test compound was calculated by assuming the sample with no test compound as 0% inhibition and the sample with no enzyme as 100% inhibition, and the percent inhibitions at different concentrations of the test compound were plotted to obtain a concentration-dependent curve.

SMILES | IC50 [nM]
CCCCCn1c(N2CCC(NS(C)(=O)=O)CC2)cc(=O)n2cc(-c3ccc(Cl)cc3)nc12 [Compound 298] | 100 to 1000
CCCCCn1c(N2CCC(C(=O)N3CCCC3=O)CC2)cc(=O)n2cc(-c3ccc(Cl)cc3)nc12 [Compound 299] | 10 to 100
CCCCCn1c(N2CCCC(C)C2)cc(=O)n2cc(-c3ccc(Cl)cc3)nc12 (stereo not shown) [Compound 300] | 100 to 1000
CCCCCn1c(N2CCCC(CO)C2)cc(=O)n2cc(-c3ccc(Cl)cc3)nc12 (stereo not shown) [Compound 301] | 100 to 1000
CCCCCn1c(N2CCCCC2CCO)cc(=O)n2cc(-c3ccc(Cl)cc3)nc12 (stereo not shown) [Compound 302] | 10 to 100
CCCCCn1c(N2CC(C)CC(C)C2)cc(=O)n2cc(-c3ccc(Cl)cc3)nc12 (stereo not shown) [Compound 303] | > 1000
CCCCCn1c(N2CCC[C@H]2CO)cc(=O)n2cc(-c3ccc(Cl)cc3)nc12 [Compound 304] | 100 to 1000
CCCCCn1c(N2CCCC(c3ccccc3)C2)cc(=O)n2cc(-c3ccc(Cl)cc3)nc12 (stereo not shown) [Compound 305] | > 1000
CCCCCn1c(N2CCCC2c2ccccc2)cc(=O)n2cc(-c3ccc(Cl)cc3)nc12 (stereo not shown) [Compound 306] | 10 to 100
CCCCCn1c(N2CCCC(C3CCCCC3)C2)cc(=O)n2cc(-c3ccc(Cl)cc3)nc12 (stereo not shown) [Compound 307] | > 1000
CCCCCn1c(N2CCCC2CC(C)C)cc(=O)n2cc(-c3ccc(Cl)cc3)nc12 (stereo not shown) [Compound 308] | 10 to 100
CCCCCn1c(N2CC=CC2)cc(=O)n2cc(-c3ccc(Cl)cc3)nc12 [Compound 309] | 10 to 100
CCCCCn1c(N2CCC(F)(F)CC2)cc(=O)n2cc(-c3ccc(Cl)cc3)nc12 [Compound 310] | 100 to 1000
CCCCCn1c(N2CCCC(CNC(=O)OC(C)(C)C)C2)cc(=O)n2cc(-c3ccc(Cl)cc3)nc12 (stereo not shown) [Compound 311] | 100 to 1000
CCCCCn1c(N2CCC3CN(C(=O)OC(C)(C)C)CC32)cc(=O)n2cc(-c3ccc(Cl)cc3)nc12 (stereo not shown) [Compound 312] | 10 to 100
CCCCCn1c(N2CCC3(CN(C(=O)OC(C)(C)C)C3)C2)cc(=O)n2cc(-c3ccc(Cl)cc3)nc12 [Compound 313] | 100 to 1000
CCCCCn1c(N2CC3CN(C(=O)OC(C)(C)C)CC3C2)cc(=O)n2cc(-c3ccc(Cl)cc3)nc12 (stereo not shown) [Compound 314] | > 1000

SMILES | IC50 [nM]
CCCCCn1c(N2CCCC(CC(=O)OCC)C2)cc(=O)n2cc(-c3ccc(Cl)cc3)nc12 (stereo not shown) [Compound 315] | 100 to 1000
CCCCCn1c(N2CCCC(O)(c3ccc(F)cc3)C2)cc(=O)n2cc(-c3ccc(Cl)cc3)nc12 (stereo not shown) [Compound 317] | > 1000
CCCCCn1c(N2CCC[C@H]2C(=O)Nc2ccccc2)cc(=O)n2cc(-c3ccc(Cl)cc3)nc12 [Compound 318] | 100 to 1000
CCCCCn1c(N2CCCC(CC(=O)O)C2)cc(=O)n2cc(-c3ccc(Cl)cc3)nc12 (stereo not shown) [Compound 319] | 10 to 100
CCCCCn1c(N2CCCC2Cc2ccccc2)cc(=O)n2cc(-c3ccc(Cl)cc3)nc12 (stereo not shown) [Compound 320] | 100 to 1000
CCCCCn1c(N2CCCC(F)(F)C2)cc(=O)n2cc(-c3ccc(Cl)cc3)nc12 [Compound 321] | 100 to 1000
CCCCCn1c(N2CCC(CCc3ccccc3)C2)cc(=O)n2cc(-c3ccc(Cl)cc3)nc12 (stereo not shown) [Compound 322] | > 1000
CCCCCn1c(N2CCC(C(F)(F)F)C2)cc(=O)n2cc(-c3ccc(Cl)cc3)nc12 (stereo not shown) [Compound 323] | 100 to 1000
CCCCCn1c(N2CCC(N3CC(C(=O)OC(C)(C)C)C3)C2)cc(=O)n2cc(-c3ccc(Cl)cc3)nc12 (stereo not shown) [Compound 324] | 100 to 1000
CCCCCn1c(N2CCC(Cc3ccccc3)C2)cc(=O)n2cc(-c3ccc(Cl)cc3)nc12 (stereo not shown) [Compound 325] | 100 to 1000
CCCCCn1c(N2CCC[C@H]2C(=O)NCCC(=O)O)cc(=O)n2cc(-c3ccc(Cl)cc3)nc12 [Compound 326] | < 10
CCCCCn1c(N2CCC(c3ccccc3)C2)cc(=O)n2cc(-c3ccc(Cl)cc3)nc12 (stereo not shown) [Compound 327] | 100 to 1000
CCCCCn1c(N2CCCC(CN)C2)cc(=O)n2cc(-c3ccc(Cl)cc3)nc12 (stereo not shown) [Compound 328] | 100 to 1000
CCCCCn1c(N2CCC3CNCC32)cc(=O)n2cc(-c3ccc(Cl)cc3)nc12 (stereo not shown) [Compound 329] | 100 to 1000
CCCCCn1c(N2CCC3(CNC3)C2)cc(=O)n2cc(-c3ccc(Cl)cc3)nc12 [Compound 330] | 100 to 1000
CCCCCn1c(N2CC3CNCC3C2)cc(=O)n2cc(-c3ccc(Cl)cc3)nc12 (stereo not shown) [Compound 331] | 100 to 1000
CCCCCn1c(N2CCC(C3CNC3)C2)cc(=O)n2cc(-c3ccc(Cl)cc3)nc12 (stereo not shown) [Compound 332] | 100 to 1000
